Results: US4202824A, “Physiologically active derivatives of esterastin” (Zaidan Hojin Biseibutsu Kagaku Kenkyu Kai, priority 1978, dated 1980)
Values after ≈ are worked out from the molar mass of the structure shown.

Columns and labels:
[1] = target: pig pancreas esterase; test: esterase-inhibiting activity, crude pig pancreas lipase preparation with p-nitrophenyl acetate as substrate; format: biochemical; conditions: for ID50, dose giving 50% inhibition to esterase: p-nitrophenyl acetate substrate, pH 7.0, 20° C., 30 minutes, pure products; for IC50: pig pancreas esterase, p-nitrophenyl acetate as the substrate, read-out: level giving 50% inhibition of the esterase
Procedure: Thus, a commercially available, crude lipase preparation obtained from pig pancreas is dissolved to a concentration of 0.5% (by weight) in a 0.05M phosphate buffered solution (pH 7.0) containing 0.2% "Triton X-100" (a trade name of an emulsifier consisting of a polyethyleneglycol alkylphenylether, a product of Rohm & Haas Co., U.S.A.). This lipase solution (0.03 ml), 2.92 ml of 0.05 M phosphate buffered solution (pH 7.0) and 0.025 ml of a solution containing a sample of the new compound to be assayed are mixed together, and the resulting mixture (2.975 ml) is warmed at 20° C. for 3 minutes and then admixed with 0.025 ml of a solution containing 10 mg/ml of p-nitrophenyl acetate in methanol to start the reaction of p-nitrophenyl acetate with lipase. After the enzymatic reaction is effected at 20° C. for 30 minutes, absorbance (a) at 400 nm of the resulting reaction solution is measured. On the other hand, absorbance (b) at 400 nm of a control reaction solution obtained from the blank test using the 0.05M phosphate buffered solution not containing the new compound to be assayed is measured in the same way as above. Degree (%) of inhibition to esterase is calculated according to the following equation: [formula]

[2] = storage stability; format: physicochemical
Description: In contrast, the new compound, tetrahydroesterastin is fairly stable so that it can be stored in the form of a powder as such for a long time of 1 year or more without lowering its activity.

[3] = system: cholesterol esterase; test: cholesterol esterase inhibition, cholesterol acetate as substrate, liberated cholesterol determined; format: biochemical; conditions: 37° C., 3 minutes; for cholesterol esterase-inhibiting activity relative to the parent esterastin: printed as 3-fold and 20 times higher
Description: Furthermore, the new compounds of this invention all have advantageously a remarkably higher activity of inhibiting cholesterol esterase than the parent esterastin.

[4] = system: inflammation caused by carrageenin; conditions: background statement; cited from earlier work
[5] = system: cells forming humoral antibody; conditions: background statement; cited from earlier work
[6] = system: cell-mediated immunity; conditions: background statement; cited from earlier work
[7] = system: esterase of pig pancrease; conditions: cited from earlier work

Row | ID50, dose giving 50% inhibition to esterase [1] [ng/mL] | IC50 [1] [nM] | stability on storage (in words) [2] | cholesterol esterase-inhibiting activity relative to the parent esterastin [3] | Compound | further results
1 | 9 (≈ 0.0254 µM) | 25 |  |  | CCCCCCCCCCCC(O)CC1OC(=O)C1CCCCCC (centres unmarked) [3,5-di-hydroxy-2-hexylhexadecanoic 1,3-lactone] | 
2 | 3.3 (≈ 0.00646 µM) | 6.4 | fairly stable | about 3 fold | CCCCCCCCCCCC(CC1OC(=O)C1CCCCCC)OC(=O)C(CC(N)=O)NC(C)=O (centres unmarked) [tetrahydroesterastin] | storage time as powder without lowering its activity ([2]; stored in the form of a powder as such): ≥ 1 year
3 | 0.2 (≈ 0.000395 µM) |  | fairly unstable |  | CCCCCC=CCC=CCC(CC1OC(=O)C1CCCCCC)OC(=O)C(CC(N)=O)NC(C)=O (centres unmarked) [esterastin] | effect on inflammation caused by carrageenin [4]: inhibits the inflammation caused by carrageenin; effect on number of cells forming humoral antibody [5]: reduce the number of the cells forming humoral antibody; effect on cell-mediated immunity [6]: suppress the cell-mediated immunity
4 | 7 (≈ 0.02 µM) | 20 |  | about 20 fold | CCCCCC=CCC=CCC(O)CC1OC(=O)C1CCCCCC (centres unmarked) [3,5-di-hydroxy-2-hexylhexadeca-7,10-dienoic 1,3-lactone] | cholesterol esterase-inhibiting activity relative to tetrahydroesterastin [3]: about 7 times
5 |  |  |  |  | CCOP(=O)(OCC)Oc1ccc([N+](=O)[O-])cc1 [paradoxon] | inhibition of the esterase of pig pancreas (in words) [7]: inhibit the esterase
